Results reported in US20260070913A1, “7-AMINO-3,4-DIHYDROPYRIMIDOPYRIMIDIN-2-ONE DERIVATIVE HAVING INHIBITORY ACTIVITY FOR PROTEIN KINASES AND THERAPEUTIC PHARMACEUTICAL COMPOSITION COMPRISING SAME” (KOREA INSTITUTE OF SCIENCE AND TECHNOLOGY, priority 2020, published 2026).
pIC50: −log10 of the molar value.

Key:
OCI-AML3 (N-Ras Q61L) = assay: Proliferation inhibitory activity, OCI-AML3 cell line; assay type: cell-based; settings: Homo sapiens, OCI-AML-3
Experimental: (§1) The inhibitory activities of the compounds of the present disclosure against the proliferation of the mt-NRAS (G12D) Ba/F3 and OCI-AML3 (mt-NRAS) cell lines were measured, and the […] values thereof were calculated.
Referring to the results in Table 2, it can be seen that the compound of the present disclosure has inhibitory activity against the proliferation of the human acute myeloid leukemia cell line (OCI-AML3) having the NRAS mutant gene, and the effect thereof is remarkable. Therefore, it can be seen that the compound of the present disclosure is particularly effective as a therapeutic agent for acute myeloid leukemia (AML).

ACK1 = ACK1 (Homo sapiens, UniProt Q07912); assay: Inhibitory activity against ACK1 kinase; assay type: biochemical
Experimental: (§2) The inhibitory activities of the compounds of the present disclosure against two kinases, GCK and ACK1, were measured, and the IC50 values thereof were calculated.

Ba/F3 (N-Ras G12D) = assay: Proliferation inhibitory activity, mt-NRAS (G12D) Ba/F3 cell line; assay type: cell-based; settings: Mus musculus, BaF3
Experimental: as §1

GCK = molecular target: T1, GCK (Homo sapiens, UniProt Q12851); assay: Inhibitory activity against GCK kinase; assay type: biochemical
T1 sequence (Q12851 1-820): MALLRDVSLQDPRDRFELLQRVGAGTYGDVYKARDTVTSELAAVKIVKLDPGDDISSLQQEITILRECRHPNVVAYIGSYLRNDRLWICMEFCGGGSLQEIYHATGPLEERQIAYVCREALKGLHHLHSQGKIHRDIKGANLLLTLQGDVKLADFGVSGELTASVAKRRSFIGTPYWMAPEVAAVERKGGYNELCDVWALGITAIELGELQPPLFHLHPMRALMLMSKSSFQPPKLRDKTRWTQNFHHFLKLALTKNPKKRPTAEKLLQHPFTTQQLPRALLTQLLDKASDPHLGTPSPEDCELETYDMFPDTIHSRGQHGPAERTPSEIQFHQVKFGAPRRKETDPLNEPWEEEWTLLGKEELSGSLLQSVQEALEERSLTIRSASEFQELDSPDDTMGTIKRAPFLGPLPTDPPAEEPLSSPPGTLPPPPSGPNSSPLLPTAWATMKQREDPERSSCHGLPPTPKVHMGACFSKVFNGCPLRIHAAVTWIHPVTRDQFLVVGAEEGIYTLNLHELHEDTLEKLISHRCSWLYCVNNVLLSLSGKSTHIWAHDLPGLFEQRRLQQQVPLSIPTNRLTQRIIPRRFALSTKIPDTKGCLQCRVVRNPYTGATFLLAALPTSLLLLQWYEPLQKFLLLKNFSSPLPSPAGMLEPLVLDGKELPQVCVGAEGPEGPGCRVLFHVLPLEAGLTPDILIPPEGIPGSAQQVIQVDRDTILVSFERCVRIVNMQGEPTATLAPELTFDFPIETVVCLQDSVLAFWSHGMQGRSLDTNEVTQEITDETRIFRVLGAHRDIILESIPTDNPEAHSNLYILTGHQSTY
Experimental: as §2

ACK1, sequence (Q07912 whole entry): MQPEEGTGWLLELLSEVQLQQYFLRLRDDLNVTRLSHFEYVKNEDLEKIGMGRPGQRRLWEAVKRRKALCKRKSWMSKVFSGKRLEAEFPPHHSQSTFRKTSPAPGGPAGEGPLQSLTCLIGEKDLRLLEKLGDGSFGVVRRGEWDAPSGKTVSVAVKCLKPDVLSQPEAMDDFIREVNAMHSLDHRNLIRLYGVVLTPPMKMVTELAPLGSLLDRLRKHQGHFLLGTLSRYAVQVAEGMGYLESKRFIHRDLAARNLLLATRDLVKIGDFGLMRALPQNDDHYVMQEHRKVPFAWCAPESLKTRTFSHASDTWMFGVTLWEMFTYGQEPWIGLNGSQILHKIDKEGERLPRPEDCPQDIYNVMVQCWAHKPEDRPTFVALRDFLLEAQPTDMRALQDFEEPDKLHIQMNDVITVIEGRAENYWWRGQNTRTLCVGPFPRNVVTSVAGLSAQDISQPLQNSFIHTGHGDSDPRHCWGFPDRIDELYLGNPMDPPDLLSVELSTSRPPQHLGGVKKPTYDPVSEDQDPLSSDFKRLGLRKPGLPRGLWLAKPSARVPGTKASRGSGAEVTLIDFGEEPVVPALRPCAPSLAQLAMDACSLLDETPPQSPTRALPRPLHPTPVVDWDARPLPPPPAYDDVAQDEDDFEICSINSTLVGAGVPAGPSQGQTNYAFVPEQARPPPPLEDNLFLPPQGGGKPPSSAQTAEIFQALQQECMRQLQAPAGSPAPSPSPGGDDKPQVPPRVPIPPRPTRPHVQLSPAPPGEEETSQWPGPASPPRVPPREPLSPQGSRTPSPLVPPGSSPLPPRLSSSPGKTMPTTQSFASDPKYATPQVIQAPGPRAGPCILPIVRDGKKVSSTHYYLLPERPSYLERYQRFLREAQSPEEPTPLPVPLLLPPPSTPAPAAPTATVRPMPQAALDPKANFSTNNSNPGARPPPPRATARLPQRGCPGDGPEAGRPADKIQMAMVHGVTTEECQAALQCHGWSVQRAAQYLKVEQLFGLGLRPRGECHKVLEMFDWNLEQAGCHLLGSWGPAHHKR

GI50 (OCI-AML3 (N-Ras Q61L)): 0.5 to 3 µM
pIC50 (ACK1): 6.00 to 7.00
GI50 (Ba/F3 (N-Ras G12D)): < 0.5 µM
pIC50 (GCK): < 5.00
SMILES: Cc1ccc(Nc2ncc3c(n2)N(C)C(=O)N(c2cc(-c4ncc(-c5ccccc5OC(F)(F)F)[nH]4)ccc2C)C3)cn1 [Compound No. 9, 1-methyl-3-(2-methyl-5-(5-(2-(trifluoromethoxy)phenyl)-1H-imidazol-2-yl)phenyl)-7-((6-methylpyridin-3-yl)amino)-3,4-dihydropyrimido[4,5-d]pyrimidin-2(1H)-one]
